Assay results: US11589586B2, “Pesticidal and parasiticidal pyrazole-isoxazoline compounds” (BOEHRINGER INGELHEIM ANIMAL HEALTH USA INC., priority 2017, dated 2023)
pEC50: −log10 of the molar value.

Assays:
[1] = system: adult Ctenocephalides felis; experiment: Efficacy against fleas when ingested (treated bovine blood membrane feeding); type: in vivo; settings: adult Ctenocephalides felis fed on treated bovine blood, 72 hour assessment, compared with untreated controls
Excerpt: Method B: Efficacy of Compounds Against Fleas when Ingested
A cylindrical test container was filled with 10 adult Ctenocephalides felis. A cylindrical well was closed on one end with a self-sealing flexible film and placed on top of the test container in such a position that the fleas could pierce the film and feed on the contents of the cylinder. The test compound solution was then pipetted into bovine blood and added to the well. The container part with the Ctenocephalides felis was held at 20-22° C. and 40-60% relative humidity while the well part containing the treated blood was held at 37° C. and 40-60% relative humidity. Assessment was performed at 72 hours after application in comparison with untreated controls.

A. aegypti L1 larvae = experiment: Efficacy against A. aegypti mosquitos (L1 larvae motility, dose response); type: in vivo; settings: Aedes aegypti; ten A. aegypti L1 larvae, diluted LB media, 25° C., 48h; read-out: EC50 (motility of larvae compared to DMSO control wells)
Description: Method A: Efficacy of Compounds Against A. aegypti Mosquitos Compounds were formulated in 100% DMSO are added to microtiter plates containing 180 μl of diluted LB media (Luria-Bertani media is a combination of tryptone, salt and yeast extract). Ten A. aegypti L1 larvae are added and the plates are incubated at 25° C. for 48h. The efficacy of a compound is determined based on the motility of the larvae as compared to average motility of control wells containing DMSO only. A dose response assay was conducted to determine an EC50 value.

Row | SMILES | LC50 [1] | pEC50 (A. aegypti L1 larvae)
1 | Cc1cc(C2=NOC(c3cc(C(F)(F)F)nn3C)(C(F)(F)F)C2)ccc1C(=O)NCC(=O)NCC(F)(F)F (centres unmarked) [Compound 2-1, 2-[(2-Methyl-4-[5-[1-methyl-3-(trifluoromethyl)-1H-pyrazol-5-yl]-5-(trifluoromethyl)-4,5-dihydro-1,2-oxazol-3-yl]phenyl)formamido]-N-(2,2,2-trifluoroethyl)acetamide] | < 20 µM | > 5.00
2 | Cn1nc(C(F)(F)F)cc1C1(C(F)(F)F)CC(c2ccc(C(=O)NCC(=O)NCC(F)(F)F)c3ccccc23)=NO1 (centres unmarked) [Compound 2-2, 2-[(4-[5-[1-methyl-3-(trifluoromethyl)-1H-pyrazol-5-yl]-5-(trifluoromethyl)-4,5-dihydro-1,2-oxazol-3-yl]naphthalen-1-yl)formamido]-N-(2,2,2-trifluoroethyl)acetamide] | < 20 µM | > 5.00
3 | Cn1nc(C(F)(F)F)cc1C1(C(F)(F)F)CC(c2ccc3c(c2)COC32CN(C(=O)CS(C)(=O)=O)C2)=NO1 (centres unmarked) [Compound 2-3, 1-(5′-(5-(1-methyl-3-(trifluoromethyl)-1H-pyrazol-5-yl)-5-(trifluoromethyl)-4,5-dihydroisoxazol-3-yl)-3′H-spiro[azetidine-3,1′-isobenzofuran]-1-yl)-2-(methylsulfonyl)ethan-1-one] | < 20 µM | > 5.00
4 | CSCCNC(=O)c1ccc(C2=NOC(c3cc(C(F)(F)F)nn3C)(C(F)(F)F)C2)cc1C (centres unmarked) [Compound 2-4, 2-methyl-4-[5-[1-methyl-3-(trifluoromethyl)-1H-pyrazol-5-yl]-5-(trifluoromethyl)-4,5-dihydro-1,2-oxazol-3-yl]-N-[2-(methylsulfanyl)ethyl]benzamide] | < 20 µM | > 5.00
5 | Cc1cc(C2=NOC(c3cc(C(F)(F)F)nn3C)(C(F)(F)F)C2)ccc1C(=O)NCCS(C)(=O)=O (centres unmarked) [Compound 2-5, N-(2-methanesulfonylethyl)-2-methyl-4-[5-[1-methyl-3-(trifluoromethyl)-1H-pyrazol-5-yl]-5-(trifluoromethyl)-4,5-dihydro-1,2-oxazol-3-yl]benzamide] | < 20 µM | > 5.00
6 | Cc1cc(C2=NOC(c3cc(C(F)(F)F)nn3C)(C(F)(F)F)C2)ccc1C(=O)NCC(F)(F)F (centres unmarked) [Compound 2-6, 2-methyl-4-[5-[1-methyl-3-(trifluoromethyl)-1H-pyrazol-5-yl]-5-(trifluoromethyl)-4,5-dihydro-1,2-oxazol-3-yl]-N-(2,2,2-trifluoroethyl)benzamide] | < 50 µM | > 5.00
7 | Cc1cc(C2=NOC(c3cc(C(F)(F)F)nn3C)(C(F)(F)F)C2)ccc1C(=O)NC1CC1 (centres unmarked) [Compound 2-7, N-cyclopropyl-2-methyl-4-[5-[1-methyl-3-(trifluoromethyl)-1H-pyrazol-5-yl]-5-(trifluoromethyl)-4,5-dihydro-1,2-oxazol-3-yl]benzamide] | < 50 µM | > 5.00
8 | C=CCNC(=O)c1ccc(C2=NOC(c3cc(C(F)(F)F)nn3C)(C(F)(F)F)C2)cc1C (centres unmarked) [Compound 2-8] | – | > 4.70
9 | Cn1nc(C(F)(F)F)cc1C1(C(F)(F)F)CC(c2ccc(C(=O)NCC(=O)NCC(F)(F)F)cc2)=NO1 (centres unmarked) [Compound 2-9, 2-[(4-[5-[1-Methyl-3-(trifluoromethyl)-1H-pyrazol-5-yl]-5-(trifluoromethyl)-4,5-dihydro-1,2-oxazol-3-yl]phenyl)formamido]-N-(2,2,2-trifluoroethyl) acetamide] | – | > 4.70
10 | Cn1nc(C(F)(F)F)cc1C1(C(F)(F)F)CC(c2ccc(Cl)c(C(=O)NC3CC3)c2)=NO1 (centres unmarked) [Compound 2-10, 2-Chloro-N-cyclopropyl-5-[5-[1-methyl-3-(trifluoromethyl)-1H-pyrazol-5-yl]-5-(trifluoromethyl)-4,5-dihydro-1,2-oxazol-3-yl]benzamide] | – | > 4.70
11 | Cc1cc(C2=NOC(c3cn(C)nc3C(F)(F)F)(C(F)(F)F)C2)ccc1C(=O)NCC(=O)NCC(F)(F)F (centres unmarked) [Compound 2-11, 2-[(2-methyl-4-[5-[1-methyl-3-(trifluoromethyl)-1H-pyrazol-4-yl]-5-(trifluoromethyl)-4,5-dihydro-1,2-oxazol-3-yl]phenyl)formamido]-N-(2,2,2-trifluoroethyl)acetamide] | – | > 4.70
12 | COCn1nc(C(F)(F)F)cc1C1(C(F)(F)F)CC(c2ccc(C(=O)NCC(=O)NCC(F)(F)F)c(C)c2)=NO1 (centres unmarked) [Compound 2-30, 2-[(4-[5-[1-(methoxymethyl)-3-(trifluoromethyl)-1H-pyrazol-5-yl]-5-(trifluoromethyl)-4,5-dihydro-1,2-oxazol-3-yl]-2-methylphenyl)formamido]-N-(2,2,2-trifluoroethyl)acetamide] | – | > 5.00
13 | COCn1nc(C2(C(F)(F)F)CC(c3ccc(C(=O)NCC(=O)NCC(F)(F)F)c(C)c3)=NO2)cc1C(F)(F)F (centres unmarked) [Compound 2-31, 4-(5-(1-(methoxymethyl)-5-(trifluoromethyl)-1H-pyrazol-3-yl)-5-(trifluoromethyl)-4,5-dihydroisoxazol-3-yl)-2-methyl-N-(2-oxo-2-(2,2,2-trifluoroethylamino)ethyl)benzamide] | – | > 5.00
